Results published in the supplement of paper PMC4862054.

Tests used:
Experiment in all cases: normalised viability (% of control), CellTiter-Blue; higher = more viable cells (about 100 = DMSO control)
Settings in all cases: incubation time: 72 h
HDQ-P1 [1] = tested on: HDQ-P1
Experimental: (§1)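 DSRT, CellTiter-Blue viability, 72 h incubation. Signal is normalised to DMSO and benzethonium chloride controls. Value is the normalised response at dose 8.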

DU-4475 [2] = tested on: DU-4475
Experimental: as §1

CAL-85-1 [3] = tested on: CAL-85-1
Experimental: as §1

MDA-MB-453 [4] = tested on: MDA-MB-453
Experimental: as §1

CAL-51 [5] = tested on: CAL-51
Experimental: as §1

CAL-148 [6] = tested on: CAL-148
Experimental: as §1

HDQ-P1 [7] = tested on: HDQ-P1; remark: listed apart in the source
Experimental: (§2)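 DSRT, CellTiter-Blue viability, 72 h incubation. Signal is normalised to DMSO and benzethonium chloride controls. Value is the normalised response at dose 6.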

DU-4475 [8] = tested on: DU-4475; remark: listed apart in the source
Experimental: as §2

CAL-85-1 [9] = tested on: CAL-85-1; remark: listed apart in the source
Experimental: as §2

MDA-MB-453 [10] = tested on: MDA-MB-453; remark: listed apart in the source
Experimental: as §2

CAL-51 [11] = tested on: CAL-51; remark: listed apart in the source
Experimental: as §2

CAL-148 [12] = tested on: CAL-148; remark: listed apart in the source
Experimental: as §2

HDQ-P1 [13] = tested on: HDQ-P1; remark: listed apart in the source
Experimental: (§3)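 DSRT, CellTiter-Blue viability, 72 h incubation. Signal is normalised to DMSO and benzethonium chloride controls. Value is the normalised response at dose 7.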

DU-4475 [14] = tested on: DU-4475; remark: listed apart in the source
Experimental: as §3

CAL-85-1 [15] = tested on: CAL-85-1; remark: listed apart in the source
Experimental: as §3

MDA-MB-453 [16] = tested on: MDA-MB-453; remark: listed apart in the source
Experimental: as §3

CAL-51 [17] = tested on: CAL-51; remark: listed apart in the source
Experimental: as §3

CAL-148 [18] = tested on: CAL-148; remark: listed apart in the source
Experimental: as §3

CN1CCC(COc2cnc(-c3cccc(Cn4nc(-c5cccc(C#N)c5)ccc4=O)c3)nc2)CC1 (3000 nM)
normalised viability (HDQ-P1 [1]): 85.4% | normalised viability (DU-4475 [2]): 108% | normalised viability (CAL-85-1 [3]): 87.3% | normalised viability (MDA-MB-453 [4]): 63.8% | normalised viability (CAL-51 [5]): 84.4% | normalised viability (CAL-148 [6]): 79.8%

CN(C)C/C=C/C(=O)Nc1cc2c(Nc3ccc(F)c(Cl)c3)ncnc2cc1O[C@H]1CCOC1 [Afatinib] (3000 nM)
normalised viability (HDQ-P1 [1]): 19.4% | normalised viability (DU-4475 [2]): 92.7% | normalised viability (CAL-85-1 [3]): 39.6% | normalised viability (MDA-MB-453 [4]): 30% | normalised viability (CAL-51 [5]): 86.2% | normalised viability (CAL-148 [6]): 58.2%

CN1CC[C@H](c2c(O)cc(O)c3c(=O)cc(-c4ccccc4Cl)oc23)[C@H](O)C1 [Alvocidib] (3000 nM)
normalised viability (HDQ-P1 [1]): 13.7% | normalised viability (DU-4475 [2]): 1.28% | normalised viability (CAL-85-1 [3]): 3.02% | normalised viability (MDA-MB-453 [4]): 7.79% | normalised viability (CAL-51 [5]): 4.88% | normalised viability (CAL-148 [6]): 14.4%

Nc1nc(Cl)nc2c1ncn2[C@H]1C[C@H](O)[C@@H](CO)O1 [Cladribine] (300 nM)
normalised viability (HDQ-P1 [1]): 96.3% | normalised viability (DU-4475 [2]): 102% | normalised viability (CAL-85-1 [3]): 92.9% | normalised viability (MDA-MB-453 [4]): 96.9% | normalised viability (CAL-51 [5]): 104% | normalised viability (CAL-148 [6]): 103%

Nc1ccn([C@@H]2O[C@H](CO)[C@@H](O)[C@@H]2O)c(=O)n1 [Cytarabine] (3000 nM)
normalised viability (HDQ-P1 [1]): 86.7% | normalised viability (DU-4475 [2]): 26.1% | normalised viability (CAL-85-1 [3]): 70.1% | normalised viability (MDA-MB-453 [4]): 62.5% | normalised viability (CAL-51 [5]): 16.4% | normalised viability (CAL-148 [6]): 34.8%

Cc1c2oc3c(C)ccc(C(=O)N[C@@H]4C(=O)N[C@H](C(C)C)C(=O)N5CCC[C@H]5C(=O)N(C)CC(=O)N(C)[C@@H](C(C)C)C(=O)O[C@@H]4C)c3nc-2c(C(=O)N[C@@H]2C(=O)N[C@H](C(C)C)C(=O)N3CCC[C@H]3C(=O)N(C)CC(=O)N(C)[C@@H](C(C)C)C(=O)O[C@@H]2C)c(N)c1=O [Dactinomycin] (300 nM)
normalised viability (HDQ-P1 [1]): 9.3% | normalised viability (DU-4475 [2]): 1.26% | normalised viability (CAL-85-1 [3]): 2.52% | normalised viability (MDA-MB-453 [4]): 6.05% | normalised viability (CAL-51 [5]): 5.05% | normalised viability (CAL-148 [6]): 11.4%

COc1cccc2c1C(=O)c1c(O)c3c(c(O)c1C2=O)C[C@@](O)(C(=O)CO)C[C@@H]3O[C@H]1C[C@H](N)[C@H](O)[C@H](C)O1 [Doxorubicin] (300 nM)
normalised viability (HDQ-P1 [1]): 58% | normalised viability (DU-4475 [2]): 39.4% | normalised viability (CAL-85-1 [3]): 54% | normalised viability (MDA-MB-453 [4]): 70.6% | normalised viability (CAL-51 [5]): 33.5% | normalised viability (CAL-148 [6]): 31.9%

Cc1ccc(F)c(NC(=O)Nc2ccc(-c3cccc4[nH]nc(N)c34)cc2)c1 [Linifanib] (300 nM)
normalised viability (HDQ-P1 [1]): 111% | normalised viability (DU-4475 [2]): 105% | normalised viability (CAL-85-1 [3]): 103% | normalised viability (MDA-MB-453 [4]): 113% | normalised viability (CAL-51 [5]): 101% | normalised viability (CAL-148 [6]): 104%

COc1cc(Nc2ncc3c(n2)-c2ccc(Cl)cc2C(c2c(F)cccc2OC)=NC3)ccc1C(=O)O [MLN8237] (300 nM)
normalised viability (HDQ-P1 [7]): 44.1% | normalised viability (DU-4475 [8]): 9.79% | normalised viability (CAL-85-1 [9]): 44% | normalised viability (MDA-MB-453 [10]): 64.7% | normalised viability (CAL-51 [11]): 35.9% | normalised viability (CAL-148 [12]): 49.2%

COc1cc(Nc2ncc3c(n2)-c2ccc(Cl)cc2C(c2c(F)cccc2OC)=NC3)ccc1C(=O)O [MLN8237] (1000 nM)
normalised viability (HDQ-P1 [13]): 54.2% | normalised viability (DU-4475 [14]): 16.5% | normalised viability (CAL-85-1 [15]): 69.1% | normalised viability (MDA-MB-453 [16]): 68.9% | normalised viability (CAL-51 [17]): 27.2% | normalised viability (CAL-148 [18]): 36.9%

COc1cc(Nc2ncc3c(n2)-c2ccc(Cl)cc2C(c2c(F)cccc2OC)=NC3)ccc1C(=O)O [MLN8237] (3000 nM)
normalised viability (HDQ-P1 [1]): 58% | normalised viability (DU-4475 [2]): 18.3% | normalised viability (CAL-85-1 [3]): 69.2% | normalised viability (MDA-MB-453 [4]): 60.1% | normalised viability (CAL-51 [5]): 26.2% | normalised viability (CAL-148 [6]): 28.8%

S=c1[nH]cnc2nc[nH]c12 [Mercaptopurine] (300 nM)
normalised viability (HDQ-P1 [7]): 76.6% | normalised viability (DU-4475 [8]): 112% | normalised viability (CAL-85-1 [9]): 83.8% | normalised viability (MDA-MB-453 [10]): 110% | normalised viability (CAL-51 [11]): 97.8% | normalised viability (CAL-148 [12]): 102%

S=c1[nH]cnc2nc[nH]c12 [Mercaptopurine] (3000 nM)
normalised viability (HDQ-P1 [1]): 88.9% | normalised viability (DU-4475 [2]): 114% | normalised viability (CAL-85-1 [3]): 83.3% | normalised viability (MDA-MB-453 [4]): 115% | normalised viability (CAL-51 [5]): 90.1% | normalised viability (CAL-148 [6]): 90.8%

Clc1ccc(C(c2ccccc2Cl)C(Cl)Cl)cc1 (stereo unspecified) [Mitotane] (300 nM)
normalised viability (HDQ-P1 [7]): 92.5% | normalised viability (DU-4475 [8]): 95% | normalised viability (CAL-85-1 [9]): 94.5% | normalised viability (MDA-MB-453 [10]): 110% | normalised viability (CAL-51 [11]): 109% | normalised viability (CAL-148 [12]): 101%

Clc1ccc(C(c2ccccc2Cl)C(Cl)Cl)cc1 (stereo unspecified) [Mitotane] (3000 nM)
normalised viability (HDQ-P1 [1]): 91.7% | normalised viability (DU-4475 [2]): 96.2% | normalised viability (CAL-85-1 [3]): 94.6% | normalised viability (MDA-MB-453 [4]): 113% | normalised viability (CAL-51 [5]): 111% | normalised viability (CAL-148 [6]): 103%

COc1cccc2cc(-c3nc([C@H]4CC[C@H](C(=O)O)CC4)n4ncnc(N)c34)[nH]c12 [OSI-027] (300 nM)
normalised viability (HDQ-P1 [7]): 37.9% | normalised viability (DU-4475 [8]): 82.5% | normalised viability (CAL-85-1 [9]): 75.5% | normalised viability (MDA-MB-453 [10]): 66.1% | normalised viability (CAL-51 [11]): 74.3% | normalised viability (CAL-148 [12]): 76.1%
